Assay results as given in patent US20250362274A1, “SYSTEMS AND METHODS TO DETERMINE PARTITION COEFFICIENTS BETWEEN CRUDE OIL AND AN AQUEOUS PHASE” (Saudi Arabian Oil Company, priority 2024, published 2025).

Legend:
[1] = Partition coefficient between crude oil and aqueous phase (microfluidic mixer, functionalized glass fiber separation tube, HPLC UV-Vis); type: physicochemical; details: tracer at 100 ppm, after mixing with crude oil and separation
Experimental: In step 2700, the partition coefficient is calculated using the measurement from step 2600 and the reference points and calibration curve from step 2100. The partition coefficient of a substance “A” is defined as
where [A]org is the concentration of substance A in the organic phase, and [A]aq is the concentration of substance A in the water phase, with equal volumes of organic and aqueous phases at equilibrium. The detection system 1300 and the calibration curve from the step 2100 can provide [A]aq. [A]total can be obtained from the step 2200 and [A]org can be calculated as [A]org=[A]total−[A]aq.
A partition coefficient detection system was constructed using a teardrop microfluidic mixer (micronit), a functionalized glass fiber packed capillary tube oil/water phase separator, and a 1D HPLC UV-Vis detector (Agilent, 1290 Infinity HPLC system).
To prepare the functionalized glass fiber packed capillary tube oil/water phase separator, a hydrophobic fiber filtration material was prepared by chemically functionalizing surfaces of glass wool. […] The washed glass wool was immersed in 20 mL Piranha solution (3:1 mixture of concentrated sulfuric acid and 30% hydrogen peroxide) for 30 mins, then the treated glass wool was removed from the Piranha solution and rinsed with DI water until the pH value of the water used for rinsing was near neutral pH (pH=7±1), as monitored by a pH meter. […]

[2] = Hansch, C. et al. (1995); cited from earlier work

Compound | partitioning behavior between crude oil and aqueous phase (FIG. 4) [1] | partition coefficient (log P), value from the literature [2]
O=C(O)c1ccccc1F [2-fluorobenzoic acid] | did not show partitioning behavior | 
OCc1ccc(Cl)cc1 [4-CBA, 4-chlorobenzyl alcohol] | did show partitioning behavior | 1.96
